Experiments:
Format in all cases: in vivo, mouse
[1] = test system: ALL patient donor 06343 xenograft; assay: Disease burden (blast cells) in bone marrow, patient-derived ALL xenograft donor 06343; conditions: for Disease Burden in Bone Marrow, CD45/10% Mean: NOD-scid IL2Rγ null mice, dosed at 38% blasts in sentinels, bone marrow counts day 14 post-dose
Excerpt: Establishment of patient-derived xenografts: NOD-scid IL2Rγ null mice were used as hosts for patient-derived xenografts. Twenty-four hours prior to cell implant, mice received 1.0 Gy irradiation using a Radsource 2000 irradiator (Radsource technologies, Suwanee, Ga.). Frozen bone marrow isolates of mononuclear cells from patients with acute lymphoblastic leukemia were obtained from […] (Alameda, Calif.). Cells were thawed in a warm water bath. After thaw, RPMI-1640 media was slowly added to the bone marrow isolate suspension. The cells were washed with PBS and centrifuged to remove DMSO in freezing media. After centrifugation, the cells were suspended in PBS. For, implantation, 3.6×10^6 cells were injected into the tail vein of female NOD-scid IL2Rγ null mice designated as donor, or passage 0 mice. Approximately 7 weeks after implant, mice were euthanized. Bone marrow and spleen were collected using sterile technique. Spleens were mechanically disrupted using a sterile syringe end and mesh filter. Connective tissues from spleens were filtered out using 40um filters. Splenocytes and bone marrow cells were treated with red blood cell buffer lysis (BD lysis buffer, BD biosciences, San Jose, Calif.) for 15 minutes at room temperature. A sample of the cells was utilized for confirmation of engraftment. The percentage of blast cells was determined by the number of CD45 FITC, CD19 PE-Cy.5 (BD Biosciences, San Jose, Calif.) CD10 APC (Biolegend, San Diego, Calif.) triple positive cells via flow cytometry (FACScalibur, BD Biosciences, San Jose, Calif.). The majority of the cells (passage 1) were placed into freezing media (90% Heat inactivated fetal bovine serum and 10% DMSO). Subsequent xenograft experiments utilized passage 1 cells. Cells were implanted in the same manner done for donor mice (passage 0 mice). Starting 14-21 days post implant, 2-3 sentinel mice were euthanized to determine the percentage blast cells in the bone marrow. Once the percentage of blast cells was at 25-50% of the bone marrow mononuclear cells mice were randomly placed into treatment groups. SGN-CD19A and non-specific ADC (also called h00-1269) were administered as a single intraperitoneal injection at 1.0, 3.0, or 10.0 mg/kg dose. Cyclophosphamide at 15 or 30 mg/kg (Baxter, Deefield, Ill.), Vincristine at 0.188 or 0.375 mg/kg (Hospira, Lake Forest, Ill.), and Doxorubicin at 1.24 or 2.475 mg/kg (Pfizer, NY, NY) were combined and administered as a single dose via intravenous injection into the lateral tail vein. Dexamethasone at 7.5 or 15 mg/kg (APP Pharmaceuticals, Schaumberg, Ill.) was given daily via intraperitoneal injection for five days. At pre-determined times post treatment, mice were euthanized for collection of bone marrow and determination of blast cell percentage via flow cytometry.
The response of human patient-derived ALL cells to single agent SGN-CD19A or CVAD was determined in mouse xenograft models. Bone marrow isolates from patients with ALL (donor 06343 and donor 90811) were used to establish xenografts in NOD-scid IL2Rgamma^null mice. After engraftment, patient-derived bone marrow cells were frozen and are referred to as passage 1 cells. Passage 1 cells were implanted into mice and assessed for presence of blast cells (CD45/CD10/CD19 positive cells). After blast cells were between 25-50% of the bone marrow, mice were placed in treatment groups (n=3 mice per time point). Mice were given either 1, 3, or 10 mg/kg of SGN-CD19A or 10 mg/kg of a non-specific ADC conjugated to MMAF (also called h00-1269). A maximum tolerated dose (MTD) of CVAD had previously been determined in the same mouse strain. Mice were given either CVAD at the MTD or at 50% of the MTD.
The response of human patient-derived ALL cells to the combination of SGN-CD19A and CVAD was also determined in the mouse xenograft model. Patient samples were engrafted as described above.

[2] = test system: NALM-6; conditions: C.B-17 SCID mice; treatment 7 days post implant; SGN-CD19A single dose 1.0 mg/kg; cyclophosphamide 30, vincristine 0.375, doxorubicin 2.475 mg/kg single iv; dexamethasone 15 mg/kg ip daily x5; survivors sacrificed at 133 days
Procedure: (§1) Establishment of cell line xenografts: NALM-6 (DSMZ, Braunschweig, Germany) and RS4; 11 (ATCC, Manassas, Va.) cell lines were cultured in RPMI 1640 media, supplemented with Heat Inactivated Fetal Bovine serum (10%) and Penicillin/Streptomycin(1%) (Gibco, Grand Island, N.Y.). Cells were maintained in a humidified atmosphere at 37° C. and 5% CO2. For NALM-6 cell implantation, 1.0×10^5 cells in 200 ul PBS were injected into the tail vein of female C.B-17 SCID (Harlan Laboratories, Livermore, Calif.) mice. Mice were randomly assigned to treatment groups and treatment was given seven days post cell implant. For RS4; 11 cell implantation, 1.8×10^6 cells in 200 ul PBS were implanted into the tail vein of female C.B-17 SCID mice. Mice were randomly assigned to treatment groups. Treatment was given one day post cell implant. Treatment in the NALM-6 consisted of a single dose of SGN-CD19A at 1.0 mg/kg; in RS4; 11, SGN-CD19A was given once every four days for four doses at 0.3 mg/kg. Cyclophosphamide, 30 mg/kg (Baxter, Deefield, Ill.), Vincristine, 0.375 mg/kg (Hospira, Lake Forest, Ill.), and Doxorubicin, 2.475 mg/kg (Pfizer, NY, NY) were combined and administered as a single dose via intravenous injection into the lateral tail vein. Dexamethasone, 15 mg/kg (APP Pharmaceuticals, Schaumberg, Ill.), was given daily for five days via intraperitoneal injection. For each xenograft model, mice were monitored daily and body weights were collected at least once per week. Mice were removed from experiment at the onset of clinical disease signs (hind limb weakness, piloerection, hunched posture) or weight loss in excess of 20% of initial body weight.
(§2) Cell line-derived xenografts were used to investigate the median survival time for the combination of SGN-CD19A and CVAD, as well as SGN-CD19A and each of the components of CVAD. Either NALM-6 or Rs4; 11 cells were implanted into CB-17 SCID mice. Ten mice were assigned to each treatment group. […] SGN-CD19A and CVAD were administered at sub-optimal doses. Results are shown in FIGS. 4A and 4B and Tables 1 and 2. […] For the Rs4; 11 experiment, the experiment was terminated on day 154.

[3] = test system: RS4; 11; conditions: C.B-17 SCID mice; treatment 1 day post implant; SGN-CD19A 0.3 mg/kg every four days x4; cyclophosphamide 30, vincristine 0.375, doxorubicin 2.475 mg/kg single iv; dexamethasone 15 mg/kg ip daily x5; terminated day 154
Procedure: as §1, §2

Molecule: C[C@@H]1C[C@H]2[C@@H]3CCC4=CC(=O)C=C[C@]4(C)[C@@]3(F)[C@@H](O)C[C@]2(C)[C@@]1(O)C(=O)CO [Dexamethasone]
- Disease Burden in Bone Marrow, CD45/10% Mean [1]: 82.5%
- Median Survival [2]: 39 days
- Median Survival [3]: 80 days

Molecule: CC[C@]1(O)C[C@H]2CN(CCc3c([nH]c4ccccc34)[C@@](C(=O)OC)(c3cc4c(cc3OC)N(C=O)[C@H]3[C@@](O)(C(=O)OC)[C@H](OC(C)=O)[C@]5(CC)C=CCN6CC[C@]43[C@@H]65)C2)C1 [Vincristine]
- Disease Burden in Bone Marrow, CD45/10% Mean [1]: 69.1%
- Median Survival [2]: 47 days
- Median Survival [3]: 79 days

Molecule: COc1cccc2c1C(=O)c1c(O)c3c(c(O)c1C2=O)C[C@@](O)(C(=O)CO)C[C@@H]3O[C@H]1C[C@H](N)[C@H](O)[C@H](C)O1 [Doxorubicin]
- Disease Burden in Bone Marrow, CD45/10% Mean [1]: 69.2%
- Median Survival [2]: 44 days
- Median Survival [3]: 62 days

Molecule: O=P1(N(CCCl)CCCl)NCCCO1 (stereo not shown) [Cyclophosphamide]
- Disease Burden in Bone Marrow, CD45/10% Mean [1]: 90%
- Median Survival [2]: 38 days
- Median Survival [3]: 58 days

B1: SGN-CD19A: CD19-directed antibody-drug conjugate: humanized antibody hBU12, maleimidocaproyl linker, monomethyl auristatin F (MMAF); average four drugs per antibody (conjugate)
VL: EIVLTQSPATLSLSPGERATLSCSASSSVSYMHWYQQKPGQAPRLLIYDTSKLASGIPARFSGSGSGTDFTLTISSLEPEDVAVYYCFQGSVYPFTFGQGTKLEIKR
VH: QVQLQESGPGLVKPSQTLSLTCTVSGGSISTSGMGVGWIRQHPGKGLEWIGHIWWDDDKRYNPALKSRVTISVDTSKNQFSLKLSSVTAADTAVYYCARMELWSYYFDYWGQGTLVTVSS
- Disease Burden in Bone Marrow, CD45/10% Mean [1]: 92.5%
- single agent dose response, blast cells in the bone marrow ([1]; SGN-CD19A 1, 3 or 10 mg/kg, CVAD at MTD or 50% of MTD, FIGS. 2A, 2C): decreasing amounts of blast cells in the bone marrow
- Median Survival [2]: 55 days
- Median Survival [3]: 85 days
